From US7348322B2, “Glucocorticoid receptor modulators as antiinflammatory agents” (Roche Palo Alto LLC, priority 2005, dated 2008)

Target: T1, Human recombinant purified glucocorticoid receptor (Homo sapiens, UniProt P04150)
T1 sequence (P04150 1-777): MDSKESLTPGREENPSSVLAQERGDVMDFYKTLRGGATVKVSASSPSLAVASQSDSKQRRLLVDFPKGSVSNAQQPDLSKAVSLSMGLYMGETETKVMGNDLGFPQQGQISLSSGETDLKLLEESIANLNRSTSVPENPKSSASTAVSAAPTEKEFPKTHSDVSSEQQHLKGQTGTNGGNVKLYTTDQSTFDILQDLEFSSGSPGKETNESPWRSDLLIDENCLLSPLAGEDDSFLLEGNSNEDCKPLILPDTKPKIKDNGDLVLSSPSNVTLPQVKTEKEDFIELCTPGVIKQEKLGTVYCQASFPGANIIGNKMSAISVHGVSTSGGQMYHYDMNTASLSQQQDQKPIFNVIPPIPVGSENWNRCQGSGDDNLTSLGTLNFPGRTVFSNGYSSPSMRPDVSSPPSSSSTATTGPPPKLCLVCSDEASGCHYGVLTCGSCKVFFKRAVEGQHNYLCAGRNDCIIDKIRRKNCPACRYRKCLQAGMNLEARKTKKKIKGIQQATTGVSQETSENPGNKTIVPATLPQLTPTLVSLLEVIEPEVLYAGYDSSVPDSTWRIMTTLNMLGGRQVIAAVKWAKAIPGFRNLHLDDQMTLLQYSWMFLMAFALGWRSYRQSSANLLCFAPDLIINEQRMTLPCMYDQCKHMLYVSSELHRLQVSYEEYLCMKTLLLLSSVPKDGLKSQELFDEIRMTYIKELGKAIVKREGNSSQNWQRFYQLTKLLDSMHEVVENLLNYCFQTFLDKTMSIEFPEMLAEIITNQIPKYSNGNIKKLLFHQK
Assay: Glucocorticoid receptor competitive binding assay (3H-dexamethasone)
Settings: competition with 2 nM 3H-Dexamethasone, 1 nM GR, 4° C. overnight; read-out: Binding Affinity Ki
Experimental: The affinity of glucocorticoid receptor antagonists for the glucocorticoid receptor was determined in competitive binding assays by the ability of the antagonist to compete with tritiated dexamethasone.
All assay steps were performed on ice in 96-well plates. Binding buffer contained 10 mM potassium phosphate pH 7.4, 20 mM Na2Mo4, 100 μM EDTA, 2% DMSO, and 5 mM DTT. Human recombinant purified glucocorticoid receptor was used at 1 nM. Compounds tested had up to 2% DMSO final concentration. Non-specific binding condition was 1 μM dexamethasone. The radioligand used for the competition assay was 2 nM ^3H-Dexamethasone (83 Ci/mmol stock solution). Buffer, compounds or vehicles, GR, and radioligand were incubated at 4° C. overnight. Unifilter GF/B 96-well filter plates were treated with 0.5% PEI after incubation. Samples were transferred to filter plates by a cell harvester. Filter plates were washed five times with 50 mM Tris pH 7.5 and 5 mM EDTA wash buffer. Samples were dried at 65° C. for about 1 hr. Scintillation fluid was added to filter plates at 50 μL/ well and ^3H cpm were measured on the TopCount scintillation counter.

Ki [µM]	SMILES
2.4	O=C(CC1(c2ccccc2C(F)(F)F)CCC1)C(=O)Nc1cccc(-c2ccno2)c1 [Example 6, N-(3-Isoxazol-5-yl-phenyl)-2-oxo-3-[1-(2-trifluoromethyl-phenyl)-cyclobutyl]-propionamide]
0.405	Cc1noc(=O)c2ccc(NCC(=O)CC3(c4ccccc4C(F)(F)F)CCC3)cc12 [Example 1, 4-Methyl-6-{2-oxo-3-[1-(2-trifluoromethyl-phenyl)-cyclobutyl]-propylamino}-benzo[d][1,2]oxazin-1-one]
0.089	Cc1noc(=O)c2ccc(NC/C(CC3(c4ccccc4C(F)(F)F)CCC3)=N\O)cc12 [Example 2, 1-(4-Methyl-1-oxo-1H-benzo[d][1,2]oxazin-6-ylamino)-3-[1-(2-trifluoromethyl-phenyl)-cyclobutyl]propan-2-one oxime]
2.1	O/N=C(\CNc1cccc(-c2cnco2)c1)CC1(c2ccccc2C(F)(F)F)CCC1 [Example 3, 1-(3-Oxazol-5-yl-phenylamino)-3-[1-(2-trifluoromethyl-phenyl)-cyclobutyl]-propan-2-one oxime]
0.851	ON=C(CNc1ccc(-c2cnco2)cc1)CC1(c2ccccc2C(F)(F)F)CCC1 (racemic) [Example 4, 1-(4-Oxazol-5-yl-phenylamino)-3-[1-(2-trifluoromethyl-phenyl)-cyclobutyl]-propan-2-one oxime]
0.723	O=C(CC1(c2ccccc2C(F)(F)F)CCC1)C(=O)Nc1ccc(-c2cnco2)cc1 [Example 5, N-(4-Oxazol-5-yl-phenyl)-2-oxo-3-[1-(2-trifluoromethyl-phenyl)-cyclobutyl]-propionamide]
